Patent US20190275022A1, “METHODS, COMPOSITIONS, AND COMPOUNDS FOR TREATMENT OF DERMATOLOGICAL AND OCULAR CONDITIONS” (Allergan, Inc., priority 2016, published 2019)
Read-outs that look alike come from different tables or passages of the source.

Assays:
[1] = test system: lipopolysaccharide (LPS)-induced ocular inflammation model; assay: LPS-induced ocular inflammation model, aqueous humor cells and protein, survival; format: in vivo; settings: for % Efficacy, Cell % Inhibition / % Efficacy, Protein % Inhibition: aqueous humor
Description: Male Lewis rats, weighing about 250 to 270 grams, were purchased from Charles River and used for all studies. Lipopolysaccharide (LPS) was made fresh in sterile saline (1 mg/ml), kept on ice, and administered by footpad injection at a total dose of 100 μg (100 μl) per animal. Twenty-four hours later, at the time of maximal inflammation in this model, the rats were euthanized by CO2 inhalation. Aqueous humor was collected and analyzed for protein concentration and cell counts.
For the calculation of the percentage of cell inhibition, the number of cells in treatment group were divided by the average number of cells in vehicle group times 100. For the calculation of the percentage of protein inhibition, the amount protein in treatment group was divided by the average protein in the vehicle group times 100.
Aqueous humor was collected from both eyes by anterior chamber puncture, performed under an operating microscope, using a 30-gauge needle and 25 μl Hamilton syringe (Catalog number 1702). aqueous humor from both eyes was pooled and kept on ice until further analysis.
Protein determination was carried out using a standard Bradford method. Cell counting was done by using either a hemocytometer or an automated cell counter (BioRad TC10).

[2] = target: human PDE4B2 (Homo sapiens, UniProt Q07343); assay: Phosphodiesterase assay, recombinant human PDE4B2 ([3H]cAMP hydrolysis); format: biochemical
Sequence of human PDE4B2 (Q07343 1-564 isoform Q07343-2): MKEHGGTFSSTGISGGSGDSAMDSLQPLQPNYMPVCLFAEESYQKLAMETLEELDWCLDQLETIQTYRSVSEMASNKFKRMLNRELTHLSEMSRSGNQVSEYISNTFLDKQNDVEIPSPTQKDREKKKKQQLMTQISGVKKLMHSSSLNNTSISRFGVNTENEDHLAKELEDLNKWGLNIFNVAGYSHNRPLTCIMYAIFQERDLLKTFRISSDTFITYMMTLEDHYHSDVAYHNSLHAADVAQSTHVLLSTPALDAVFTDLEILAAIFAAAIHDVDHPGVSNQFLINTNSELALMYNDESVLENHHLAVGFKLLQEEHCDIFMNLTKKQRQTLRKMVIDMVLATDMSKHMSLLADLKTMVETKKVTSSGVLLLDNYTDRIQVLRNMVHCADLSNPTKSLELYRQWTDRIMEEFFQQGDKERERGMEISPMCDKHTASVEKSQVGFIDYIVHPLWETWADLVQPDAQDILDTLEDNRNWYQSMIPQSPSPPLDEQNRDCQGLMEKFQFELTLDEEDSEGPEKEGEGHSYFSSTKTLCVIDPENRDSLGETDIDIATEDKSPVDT
Description: A phosphodiesterase assay was performed using recombinant human PDE expressed in a baculoviral system.
The assay consisted of a two-step procedure. Tritium-labeled cyclic AMP was hydrolyzed to 5′-AMP by phosphodiesterase. The 5′-AMP was then further hydrolyzed to adenosine by nucleotidase in snake venom. An anion-exchange resin bound all charged nucleotides and left [^3H]adenosine as the only labeled compound to be counted by liquid scintillation.
All compounds were tested at a 10 μM starting concentration with a 1 in 3, 8 point IC50. […] The IC50 of each compound and the standard inhibitor (Rolipram) was determined. The standard inhibitor value was compared to historical assay data to ensure that it was within an acceptable range.

[3] = test system: Oxazolone (OXA) dermatitis in SKH1-E hairless mice; assay: Oxazolone-induced dermatitis model, topical or oral treatment, SCORAD and resolved lesions; format: in vivo; settings: for day of statistically significant improvement in SCORAD clinical scores: topical, vs. vehicle
Description: Female SKH1-E hairless mice (Charles River) weighing approximately 25 g at 2-3 months of age were used in the following study. For model induction, the mice were sensitized on Day −7 (minus seven) by topical application of 50 μl of 5% Oxazolone (OXA) solubilized in ethanol on the hind flank. Dermatitis was elicited by repeated topical challenges with 50 μl of 0.1% Oxazolone every other day until the end of the study.
For administration of the test compounds, the test compounds were solubilized in a 70% ethanol/30% DMSO vehicle solution and kept at 4° C. Beginning on Day 0, the test compounds were administered twice daily (AM/PM) by topical application (50 μl volume) for 12 days. Betamethasone (0.12%) was used as a positive control and dosed once daily in the AM. Test article dosing and topical challenges were separated by at least 4 hours and all compounds were masked to investigators.
For clinical assessment, the degree of dermatitis was graded on a SCORAD (scoring atopic dermatitis) based scoring system of 0-3 (with 0=no symptoms, 1=Mild, 2=Moderate, 3=Severe) prior to challenge by a masked investigator.
(§1) For tissue collection, on the day of necropsy, animals were euthanized at 2 hours post final dose via CO2 inhalation with death verified by cervical dislocation. Whole blood was collected via cardiac puncture (˜250 μl) in EDTA/K^+ treated tubes for plasma analysis of drug concentrations. A rectangular strip of skin from the left side of treatment back area was collected for hematoxylin-eosin (H&E) stain. Prior to placing tissue in 10% formalin, the skin thickness was measured using a calibrated caliper (mm). Three 8 mm tissue punches were then collected from the right side of the treatment area and stored at −80° C. for cytokine protein (LUMINEX) or gene expression assays.

[4] = test system: PMBC TNF; settings: data from literature; read-out: PMBC TNF Inhib. IC50; cited from earlier work
[5] = Plasma drug concentration after topical dosing in the dermatitis model (LC-MS/MS); format: in vivo
Description: as §1
The whole-blood samples collected in Example 2 were analyzed for drug concentrations. In particular, plasma samples were extracted by protein precipitation with acetonitrile and analyzed for drug concentrations by the bioanalytical laboratory using liquid chromatography tandem mass spectrometry (LC-MS/MS). Propranolol (200 ng/mL) was used as an internal standard for the extraction procedure. Working standards were prepared by series dilution (0.5 ng/mL) into acetonitrile from a stock solution of 10 ug/mL. All samples were analyzed using the API 5000 LC-MS/MS system in 0.1% formic acid in water.

[6] = Oral bio-availability; settings: in vivo
[7] = test system: plaque psoriasis; assay: Example of treatment of plaque psoriasis (patient case); format: in vivo, human; settings: topical up to three times a day; after 1 to 4 months
Source text: A person presents with erythematous plaques covered with thick, silvery, shiny scales on the extensor surfaces of their elbows and knees. After a clinical evaluation, the patient is diagnosed with plaque psoriasis. The patient is prescribed a pharmaceutical composition containing an effective amount of the compound of Formula I with instructions to apply the composition topically to the plaques up to three times a day.

[8] = test system: dry eye disease; assay: Example of treatment of dry eye disease (patient case); format: in vivo, human; settings: eye drops once a day; after about 1 to 2 months
Source text: A person presents with a history of having gritty, itchy and burning sensations in the both eyes which was previously generally diagnose as dry eye and has been treated with artificial tear drops applied topically to the eye as needed. The patient complains that the artificial tear solutions require too many applications per day. Medical evaluation of the patient results in the identification of the patient's dry eye disease as being dry eye disease where tear production is presumed to be suppressed due to ocular inflammation associated with the dry eye disease. The patient is prescribed eye drops containing an effective amount of the compound of Formula I with instructions to apply medication once a day.

[9] = test system: rosacea; assay: Example of treatment of rosacea (patient case); format: in vivo, human; settings: topical one or twice a day; after about two days
Source text: A person presents with visible facial erythema and edema with telangiectases and visible papules and pustules resembling acne. […] Upon clinical examination, the patient is diagnosed with rosacea in its inflammatory phase. The patient is prescribed a topical composition comprising an effective amount of the compound of Formula I and instructed to apply the composition to the affected areas one or twice a day.

[10] = test system: pruritus, atopic dermatitis; assay: Example of treatment of pruritus / atopic dermatitis (patient case); format: in vivo, human; settings: topical cream once a day
Source text: A person presents with a history of chronic relapsing atopic dermatitis (eczema), with severe itching, beginning. Their rash is characterized by red, itchy eruptions on cheeks and legs. Patient's parents stated that during a flare-up child is irritable at home and severe scratching disrupts sleep at night. Patient also feels very self-conscious of rash and is socially withdrawn at school during a flare-up. History of treatment have included lukewarm soaking baths and the use of over the counter emollients and creams. Topical calcineurin inhibitors were reported to exacerbate pruritus. The patient is prescribed a topical cream of the compound of Formula I with instructions to apply medication once day.

[11] = test system: PDE4 versus other PDEs
[12] = human PDE4B2, read-out: Enzymatic IC50
[13] = 0.01-0.5 mg/kg subcutaneously, dose dependent

## CCCNC(=O)COc1c(C(=O)Cc2c(Cl)cncc2Cl)ccc(OC)c1OC
[1]; systemic dose 1.0 mg/kg
  % Survival: 100%
  % Efficacy, Cell % Inhibition: 67%
  % Efficacy, Protein % Inhibition: 29%

## N#Cc1ccc(Oc2ccc3c(c2)COB3O)cc1 [AN-2728]
[2]
  IC50: 26 nM
[3]
  day of statistically significant improvement in SCORAD clinical scores: ≥ 9 days
[4]
  IC50: 170 nM

## CS(=O)(=O)Nc1ccc(C(=O)O[C@@H](Cc2c(Cl)c[n+]([O-])cc2Cl)c2ccc(OC(F)F)c(OCC3CC3)c2)cc1OCC1CC1 [Compound A]
[2]; [12]
  IC50: 0.04 nM
[3]; topical 0.01-1% w/v, compared to AN-2728
  reduction of SCORAD clinical scores earlier than benchmark AN-2728: 4 days
[3]
  day of statistically significant improvement in SCORAD clinical scores: ≤ 5 days
[3]; topically applied at 0.01%
  animals with resolved lesions: approximately 60%
[3]; topically applied at 1%
  animals with resolved lesions: approximately 90%
[5]; mouse, in vivo, delivered topically to the skin, 2 hours post final dose, read-out: plasma concentrations
  concentration at 2 h: < 5 ng/mL
[5]; topical 0.01%, 8 of the 10 animals
  plasma concentrations: below quantifiable limits
[6]
  oral bio-availability: does not show any oral bio-availability
[1]; [13]
  percentage of cells in the aqueous humor: significantly reduced
  percentage of protein in the aqueous humor: significantly reduced
[1]; systemic dose 0.1 mg/kg
  % Survival: 100%
  % Efficacy, Cell % Inhibition: 95%
  % Efficacy, Protein % Inhibition: 67%
[7]
  psoriatic plaques: almost completely disappeared
[8]
  gritty, itchy and burning sensations: significant reduction
  tear production: enough of an increase in tear production that the artificial tear drops are needed much less frequently
[9]
  rosacea affected areas: noticeable clearing of the affected areas
[10]; after approximately 3 weeks
  redness and eruptions on the skin: significant reduction
[10]; within the first week
  scratching: noticeable reduction in scratching
[11]
  selectivity for PDE4 versus other PDEs: greater than 50 fold
[4]
  IC50: 0.03 nM

## COc1cccc(Nc2c(C(N)=O)cnc3c(C)cc(S(=O)(=O)c4cccc(C(=O)N(C)C)c4)cc23)c1 [GSK-256066]
[2]; [12]
  IC50: 0.007 nM
[1]; rat, in vivo
  safety in the ocular inflammation model: resulted in death of the animals
[1]; systemic dose 1.0 mg/kg
  % Survival: 0%
[4]
  IC50: 0.01 nM

## CCOc1cc([C@@H](CS(C)(=O)=O)N2C(=O)c3cccc(NC(C)=O)c3C2=O)ccc1OC [apremilast]
[3]; topically applied at 1%
  animals with resolved lesions: approximately 40%
[4]
  IC50: 110 nM

## O=C(Nc1c(Cl)cncc1Cl)c1ccc(OC(F)F)c(OCC2CC2)c1 [drawing 21]
[1]; systemic dose 0.3 mg/kg
  % Survival: 100%
  % Efficacy, Cell % Inhibition: 97%
  % Efficacy, Protein % Inhibition: 77%

## CCOc1cc([C@@H](CS(C)(=O)=O)N2C(=O)c3cccc(NC(C)=O)c3C2=O)ccc1OC [drawing 22]
[1]; systemic dose 10.0 mg/kg
  % Survival: 100%
  % Efficacy, Cell % Inhibition: 94%
  % Efficacy, Protein % Inhibition: 58%

## N#Cc1ccc(Oc2ccc3c(c2)COB3O)cc1 [drawing 23]
[1]; systemic dose 1.0 mg/kg
  % Survival: 100%
  % Efficacy, Cell % Inhibition: 51%
  % Efficacy, Protein % Inhibition: 13%

## O=C(Nc1c(Cl)cncc1Cl)c1ccc(OC(F)F)c(OCC2CC2)c1 [roflumilast]
[4]
  IC50: 1.8 nM
